Measured values as given in article PMC11213733, “Computational approaches identify a transcriptomic fingerprint of drug-induced structural cardiotoxicity” (Cell Biology and Toxicology, 2024).
Where a name gives a salt, the structure may show the parent alone.

What was measured:
[1] = ref FDA label, cited from earlier work; for Structural cardiotoxin?: FDA label references heart failure or a decrease in left ventricular ejection fraction; for Functional cardiotoxin?: compound annotation
cardiac microtissues [2] = assay: Transcriptomic profiling (mRNA-seq) and DESeq2 differential gene expression analysis in cardiac microtissues; settings: absolute log2(Fold-Change) > 1, FDR p ≤ 0.05; for number of significant differentially expressed genes, 6hr high / number of significant differentially expressed genes, 48hr high / number of significant differentially expressed genes, 72hr high: high concentration; for number of significant differentially expressed genes, 6hr low / number of significant differentially expressed genes, 48hr low / number of significant differentially expressed genes, 72hr low: low concentration
cardiac microtissues [3] = assay: Ingenuity Pathway Analysis over-representation of differentially expressed genes (activation Z-score); type: cell-based, human; settings: 48hr high; Group 1

SMILES: Cc1ccc(Nc2nccc(N(C)c3ccc4c(C)n(C)nc4c3)n2)cc1S(N)(=O)=O [Pazopanib]
- Structural cardiotoxin? [1]: N
- Functional cardiotoxin? [1]: Y

SMILES: O=P1(N(CCCl)CCCl)NCCCO1 (stereo not shown) [Cyclophosphamide]
- Structural cardiotoxin? [1]: Y
- Functional cardiotoxin? [1]: Y

SMILES: O=C(C1CCCCC1)N1CC(=O)N2CCc3ccccc3C2C1 (stereo not shown) [Praziquantel]
- Structural cardiotoxin? [1]: N
- Functional cardiotoxin? [1]: N

SMILES: CCCCNC(=O)NS(=O)(=O)c1ccc(C)cc1 [Tolbutamide]
- Structural cardiotoxin? [1]: N
- Functional cardiotoxin? [1]: N

SMILES: C[C@@H]1C[C@H]2[C@@H]3CCC4=CC(=O)C=C[C@]4(C)[C@@]3(F)[C@@H](O)C[C@]2(C)[C@@]1(O)C(=O)CO [Dexamethasone]
- Structural cardiotoxin? [1]: N
- Functional cardiotoxin? [1]: N

SMILES: CC1(C)S[C@@H]2[C@H](NC(=O)[C@H](N)c3ccc(O)cc3)C(=O)N2[C@H]1C(=O)O [Amoxacillin]
- Structural cardiotoxin? [1]: N
- Functional cardiotoxin? [1]: N

SMILES: CS(=O)(=O)c1ccc(C2=C(c3ccccc3)C(=O)OC2)cc1 [Rofecoxib]
- Structural cardiotoxin? [1]: Y
- Functional cardiotoxin? [1]: Y

SMILES: Cc1cc(Nc2ncc(Cl)c(Nc3ccccc3S(=O)(=O)C(C)C)n2)c(OC(C)C)cc1C1CCNCC1 [Ceritinib]
- Structural cardiotoxin? [1]: N
- Functional cardiotoxin? [1]: Y

SMILES: Nc1nc2c(ncn2COCCO)c(=O)[nH]1 [Acyclovir]
- number of significant differentially expressed genes, 6hr high (cardiac microtissues [2]): 3
- number of significant differentially expressed genes, 6hr low (cardiac microtissues [2]): 4
- number of significant differentially expressed genes, 48hr high (cardiac microtissues [2]): 0
- number of significant differentially expressed genes, 48hr low (cardiac microtissues [2]): 0
- number of significant differentially expressed genes, 72hr high (cardiac microtissues [2]): 0
- number of significant differentially expressed genes, 72hr low (cardiac microtissues [2]): 0

SMILES: O=C1C[C@@H](c2ccc(O)cc2)Oc2cc(O)cc(O)c21 [Narigenin, Naringenin]
- Structural cardiotoxin? [1]: N
- Functional cardiotoxin? [1]: N

SMILES: C#Cc1cccc(Nc2ncnc3cc(OCCOC)c(OCCOC)cc23)c1 [Erlotinib]
- Structural cardiotoxin? [1]: N
- Functional cardiotoxin? [1]: Y
- number of significant differentially expressed genes, 6hr high (cardiac microtissues [2]): 56
- number of significant differentially expressed genes, 6hr low (cardiac microtissues [2]): 39
- number of significant differentially expressed genes, 48hr high (cardiac microtissues [2]): 634
- number of significant differentially expressed genes, 48hr low (cardiac microtissues [2]): 152
- number of significant differentially expressed genes, 72hr high (cardiac microtissues [2]): 283
- number of significant differentially expressed genes, 72hr low (cardiac microtissues [2]): 78
- activation Z-score: Cardiac Hypertrophy Signaling (cardiac microtissues [3]): -2.236
- activation Z-score: Cell Cycle Control of Chromosomal Replication (cardiac microtissues [3]): -3.742
- activation Z-score: Cell Cycle Regulation by BTG Family Proteins (cardiac microtissues [3]): -2
- activation Z-score: Cyclins and Cell Cycle Regulation (cardiac microtissues [3]): -2.111
- activation Z-score: D-myo-inositol-5-phosphate Metabolism (cardiac microtissues [3]): -2.449
- activation Z-score: DNA Methylation and Transcriptional Repression Signaling (cardiac microtissues [3]): -2.646
- activation Z-score: Estrogen-mediated S-phase Entry (cardiac microtissues [3]): -2.121
- activation Z-score: Factors Promoting Cardiogenesis in Vertebrates (cardiac microtissues [3]): -0.816
- activation Z-score: G-Protein Coupled Receptor Signaling (cardiac microtissues [3]): -2.357
- activation Z-score: GP6 Signaling Pathway (cardiac microtissues [3]): -1.633
- activation Z-score: Glioma Invasiveness Signaling (cardiac microtissues [3]): -2
- activation Z-score: HIF1Î± Signaling (cardiac microtissues [3]): -2.121
- activation Z-score: HMGB1 Signaling (cardiac microtissues [3]): -2.236
- activation Z-score: Hepatic Fibrosis Signaling Pathway (cardiac microtissues [3]): -2.138
- activation Z-score: ILK Signaling (cardiac microtissues [3]): -1.134
- activation Z-score: Insulin Secretion Signaling Pathway (cardiac microtissues [3]): -2.121
- activation Z-score: Integrin Signaling (cardiac microtissues [3]): -2.449
- activation Z-score: Kinetochore Metaphase Signaling Pathway (cardiac microtissues [3]): -3.402
- activation Z-score: Mitotic Roles of Polo-Like Kinase (cardiac microtissues [3]): -2.309
- activation Z-score: Protein Kinase A Signaling (cardiac microtissues [3]): -1.155
- activation Z-score: Pyridoxal 5'-phosphate Salvage Pathway (cardiac microtissues [3]): -2.646
- activation Z-score: RHOGDI Signaling (cardiac microtissues [3]): 1.89
- activation Z-score: Regulation Of The Epithelial Mesenchymal Transition By Growth Factors Pathway (cardiac microtissues [3]): -2.449
- activation Z-score: Role of NFAT in Cardiac Hypertrophy (cardiac microtissues [3]): -2
- activation Z-score: Salvage Pathways of Pyrimidine Ribonucleotides (cardiac microtissues [3]): -2.828
- activation Z-score: Senescence Pathway (cardiac microtissues [3]): 0.728
- activation Z-score: Sphingosine-1-phosphate Signaling (cardiac microtissues [3]): -2
- activation Z-score: Superpathway of Inositol Phosphate Compounds (cardiac microtissues [3]): -2.449
- activation Z-score: Thrombin Signaling (cardiac microtissues [3]): -2.236
- activation Z-score: White Adipose Tissue Browning Pathway (cardiac microtissues [3]): -1.633
- activation Z-score: Wound Healing Signaling Pathway (cardiac microtissues [3]): -2.111
- activation Z-score: cAMP-mediated signaling (cardiac microtissues [3]): -1.633
- activation Z-score: tRNA Charging (cardiac microtissues [3]): 2.646

SMILES: COc1cccc2c1C(=O)c1c(O)c3c(c(O)c1C2=O)C[C@@](O)(C(C)=O)C[C@@H]3O[C@H]1C[C@H](N)[C@H](O)[C@H](C)O1 [Daunorubicin]
- Structural cardiotoxin? [1]: Y
- Functional cardiotoxin? [1]: Y

SMILES: CN(C)C/C=C/C(=O)Nc1cc2c(Nc3ccc(F)c(Cl)c3)ncnc2cc1O[C@H]1CCOC1 [Afatinib]
- Structural cardiotoxin? [1]: N
- Functional cardiotoxin? [1]: N

SMILES: CC(C)NCC(O)c1ccc(O)c(O)c1 (stereo not shown) [Isoproterenol HCl]
- Structural cardiotoxin? [1]: Y
- Functional cardiotoxin? [1]: Y

SMILES: Cc1ccc(C)c(OCCCC(C)(C)C(=O)O)c1 [Gemfibrozil]
- Structural cardiotoxin? [1]: N
- Functional cardiotoxin? [1]: N

SMILES: COc1cccc2c1C(=O)c1c(O)c3c(c(O)c1C2=O)C[C@@](O)(C(=O)CO)C[C@@H]3O[C@H]1C[C@H](N)[C@@H](O)[C@H](C)O1 [Epirubicin]
- Structural cardiotoxin? [1]: Y
- Functional cardiotoxin? [1]: Y

SMILES: Cc1ccc(-c2cc(C(F)(F)F)nn2-c2ccc(S(N)(=O)=O)cc2)cc1 [Celecoxib]
- Structural cardiotoxin? [1]: Y
- Functional cardiotoxin? [1]: Y

SMILES: NC[C@H]1O[C@H](O[C@H]2[C@H](O)[C@@H](O[C@H]3O[C@H](CO)[C@@H](O)[C@H](N)[C@H]3O)[C@H](N)C[C@@H]2N)[C@H](N)C[C@@H]1O [Tobramycin]
- Structural cardiotoxin? [1]: N
- Functional cardiotoxin? [1]: N

SMILES: Cc1ccc(C(=O)Nc2ccc(CN3CCN(C)CC3)c(C(F)(F)F)c2)cc1C#Cc1cnc2cccnn12 [Ponatinib]
- Structural cardiotoxin? [1]: Y
- Functional cardiotoxin? [1]: Y

SMILES: COC(=O)[C@@H]1CC2=CC(=O)CC[C@]2(C)[C@@]23O[C@@H]2C[C@@]2(C)[C@@H](CC[C@@]24CCC(=O)O4)[C@H]13 [Eplerenone]
- Structural cardiotoxin? [1]: N
- Functional cardiotoxin? [1]: Y

SMILES: Nc1ccc(S(=O)(=O)c2ccc(N)cc2)cc1 [Dapsone]
- Structural cardiotoxin? [1]: N
- Functional cardiotoxin? [1]: N

SMILES: O=c1[nH]cc(F)c(=O)[nH]1 [Fluorouracil]
- Structural cardiotoxin? [1]: Y
- Functional cardiotoxin? [1]: Y
- number of significant differentially expressed genes, 6hr high (cardiac microtissues [2]): 0
- number of significant differentially expressed genes, 6hr low (cardiac microtissues [2]): 0
- number of significant differentially expressed genes, 48hr high (cardiac microtissues [2]): 401
- number of significant differentially expressed genes, 48hr low (cardiac microtissues [2]): 1
- number of significant differentially expressed genes, 72hr high (cardiac microtissues [2]): 366
- number of significant differentially expressed genes, 72hr low (cardiac microtissues [2]): 200
- activation Z-score: BER (Base Excision Repair) Pathway (cardiac microtissues [3]): -2.236
- activation Z-score: Cell Cycle Control of Chromosomal Replication (cardiac microtissues [3]): -4.359
- activation Z-score: Cell Cycle Regulation by BTG Family Proteins (cardiac microtissues [3]): -1.342
- activation Z-score: Cyclins and Cell Cycle Regulation (cardiac microtissues [3]): -2.714
- activation Z-score: DNA Methylation and Transcriptional Repression Signaling (cardiac microtissues [3]): -1.414
- activation Z-score: Estrogen-mediated S-phase Entry (cardiac microtissues [3]): -2.333
- activation Z-score: G-Protein Coupled Receptor Signaling (cardiac microtissues [3]): -1
- activation Z-score: Kinetochore Metaphase Signaling Pathway (cardiac microtissues [3]): -3.772
- activation Z-score: Mismatch Repair in Eukaryotes (cardiac microtissues [3]): -2
- activation Z-score: Mitotic Roles of Polo-Like Kinase (cardiac microtissues [3]): -2.309
- activation Z-score: NER (Nucleotide Excision Repair, Enhanced Pathway) (cardiac microtissues [3]): -1.414
- activation Z-score: Protein Kinase A Signaling (cardiac microtissues [3]): 2
- activation Z-score: Pyridoxal 5'-phosphate Salvage Pathway (cardiac microtissues [3]): -1.89
- activation Z-score: RHOGDI Signaling (cardiac microtissues [3]): 2
- activation Z-score: Salvage Pathways of Pyrimidine Ribonucleotides (cardiac microtissues [3]): -2.121
- activation Z-score: Senescence Pathway (cardiac microtissues [3]): 2.324
- activation Z-score: Superpathway of Inositol Phosphate Compounds (cardiac microtissues [3]): -0.447

SMILES: CN(C)CCN(Cc1cccs1)c1ccccn1 [Methapyrilene]
- Structural cardiotoxin? [1]: N

SMILES: O=C1CC2(CCCC2)CC(=O)N1CCCCN1CCN(c2ncccn2)CC1 [Buspirone HCl]
- Structural cardiotoxin? [1]: N
- Functional cardiotoxin? [1]: N
- number of significant differentially expressed genes, 6hr high (cardiac microtissues [2]): 42
- number of significant differentially expressed genes, 6hr low (cardiac microtissues [2]): 10
- number of significant differentially expressed genes, 48hr high (cardiac microtissues [2]): 14
- number of significant differentially expressed genes, 48hr low (cardiac microtissues [2]): 6
- number of significant differentially expressed genes, 72hr high (cardiac microtissues [2]): 8
- number of significant differentially expressed genes, 72hr low (cardiac microtissues [2]): 4

SMILES: CCc1ccc(CCOc2ccc(CC3SC(=O)NC3=O)cc2)nc1 (stereo not shown) [Pioglitazone]
- Structural cardiotoxin? [1]: Y
- Functional cardiotoxin? [1]: Y

SMILES: COC(=O)Nc1nc2ccc(C(=O)c3ccccc3)cc2[nH]1 [Mebendazole]
- number of significant differentially expressed genes, 6hr high (cardiac microtissues [2]): 195
- number of significant differentially expressed genes, 6hr low (cardiac microtissues [2]): 27
- number of significant differentially expressed genes, 48hr high (cardiac microtissues [2]): 407
- number of significant differentially expressed genes, 48hr low (cardiac microtissues [2]): 79
- number of significant differentially expressed genes, 72hr high (cardiac microtissues [2]): 536
- number of significant differentially expressed genes, 72hr low (cardiac microtissues [2]): 192

SMILES: CN1CCN(C2=Nc3cc(Cl)ccc3Nc3ccccc32)CC1 [Clozapine]
- Functional cardiotoxin? [1]: Y
- number of significant differentially expressed genes, 6hr high (cardiac microtissues [2]): 16
- number of significant differentially expressed genes, 6hr low (cardiac microtissues [2]): 2
- number of significant differentially expressed genes, 48hr high (cardiac microtissues [2]): 25
- number of significant differentially expressed genes, 48hr low (cardiac microtissues [2]): 4
- number of significant differentially expressed genes, 72hr high (cardiac microtissues [2]): 60
- number of significant differentially expressed genes, 72hr low (cardiac microtissues [2]): 1

SMILES: C[C@@H](Oc1cc(-c2cnn(C3CCNCC3)c2)cnc1N)c1c(Cl)ccc(F)c1Cl [Crizotinib]
- Structural cardiotoxin? [1]: N
- Functional cardiotoxin? [1]: Y

SMILES: CNC(=O)c1ccccc1Sc1ccc2c(/C=C/c3ccccn3)n[nH]c2c1 [Axitinib]
- Structural cardiotoxin? [1]: N
- Functional cardiotoxin? [1]: Y

SMILES: N#CC[C@H](C1CCCC1)n1cc(-c2ncnc3[nH]ccc23)cn1 [Ruxolitinib]
- Structural cardiotoxin? [1]: N
- Functional cardiotoxin? [1]: N

SMILES: CCn1cc(C(=O)O)c(=O)c2cc(F)c(N3CCNC(C)C3)c(F)c21 (stereo not shown) [Lomefloxacin]
- Structural cardiotoxin? [1]: Y
- Functional cardiotoxin? [1]: Y
